Results reported in US6110939A, “(Benzimidazolyl- and imidazopyridinyl) containing 1-(1,2-disubstituted piperidinyl) derivatives” (Janssen Pharmaceutica N.V., priority 1995, dated 2000).

What follows are compounds tested on substance P induced relaxation of the pig coronary arteries (assay: Antagonism of substance P induced relaxation of the pig coronary arteries). Conditions: Sus scrofa, 0.5 h; test compound 3 × 10^-7; response to 10^-9 M substance P; 30 min incubation.
Format: cell-based
Protocol: Antagonism of substance P induced relaxation of the pig coronary arteries
Segments of coronary arteries taken from pigs (killed by injection of an overdose of sodium pentobarbital) were inverted and mounted for recording of isometric tension in organ baths (volume 20 ml) with the endothelium at the outside. The preparations were bathed in Krebs - Henseleit solution. The solution was kept at 37° C. and gassed with a mixture of O2 /CO2 (95/5). After stabilisation of the preparations, prostaglandin F2α (10^-5 M) was administered to induce a contraction. This was repeated until contractile responses became stable. Then prostaglandin F2α was again administered and substance P (3×10^-10 M and 10^-9 M cumulatively) was added. […] After washing away the agonists, a known concentration of a compound of formula (I) was added. After an incubation period of 30 minutes, prostaglandin F2α (10^-5 M) and the same concentrations of substance P as described above were again administered in the presence of the compound to be tested.
With Cc1cc(C)cc(C(=O)N2CC[C@H](N3CCC(Nc4nc5ccccc5n4Cc4ccccc4F)CC3)C[C@@H]2Cc2ccccc2)c1 (relative stereo) [Compound 3] the inhibition at 0.3 µM was 35.2%.

Same assay, conditions: Sus scrofa, 0.5 h; test compound 3 × 10^-8; response to 10^-9 M substance P; 30 min incubation
Compound Cc1cc(C)cc(C(=O)N2CC[C@@H](N3CCC(Cc4nc5ccccc5n4Cc4csc(C)n4)CC3)C[C@@H]2Cc2ccccc2)c1 (relative stereo) [Compound 12] has an inhibition at 0.03 µM of 92.3%. Compound CCOCCn1c(N[C@@H]2CCN(C(=O)c3cc(C(F)(F)F)cc(C(F)(F)F)c3)[C@H](Cc3ccc(F)c(F)c3)C2)nc2ccccc21 (relative stereo) [Compound 148] has an inhibition at 0.03 µM of 100%. CCOCCn1c(NC2CCN([C@@H]3CCN(C(=O)c4cc(C(F)(F)F)cc(C(F)(F)F)c4)[C@@H](Cc4ccccc4)C3)CC2)nc2ccccc21 (relative stereo) [Compound 6, (±)-trans-1-[1,3-bis(trifluoromethyl)-benzoyl]-4-[4-[[1-(2-ethoxyethyl)-1H-benzimidazol-2-yl]amino]-1-piperidinyl]-2-(phenylmethyl)piperidine] gave an inhibition at 0.03 µM of 85.3%. With Cc1ccc(Cn2c(NC3CCN([C@@H]4CCN(C(=O)c5cc(C(F)(F)F)cc(C(F)(F)F)c5)[C@H](Cc5ccccc5)C4)C3)nc3cccnc32)o1 (some centres unmarked) [Compound 30] the inhibition at 0.03 µM was 87.5%. For Cc1cc(C)cc(C(=O)N2CC[C@H](N3CCC(Cc4nc5ccccc5n4Cc4csc(C)n4)CC3)C[C@@H]2Cc2ccccc2)c1 (relative stereo) [Compound 11], the inhibition at 0.03 µM was 81.1%. For Cc1cc(C)cc(C(=O)N2CC[C@@H](N3CCC(Nc4nc5ccccc5n4Cc4ccccc4F)CC3)C[C@@H]2Cc2ccccc2)c1 (relative stereo) [Compound 4], the inhibition at 0.03 µM was 10.2%. Work on O=C(c1cc(C(F)(F)F)cc(C(F)(F)F)c1)N1CC[C@@H](N2CCC(Sc3nc4ccccc4n3Cc3ccc(F)cc3)CC2)C[C@@H]1Cc1ccccc1 (relative stereo) [Compound 35] yielded an inhibition at 0.03 µM of 88.5%. Compound Cc1cc(C)cc(C(=O)N2CC[C@@H](N3CCC(Nc4nc5ccccc5n4Cc4cscn4)CC3)C[C@@H]2Cc2ccccc2)c1 (relative stereo) [Compound 10] has an inhibition at 0.03 µM of 89.3%. Compound CCOCCn1c(N[C@@H]2CCN(C(=O)c3cc(C(F)(F)F)cc(C(F)(F)F)c3)[C@@H](Cc3ccc(F)c(F)c3)C2)nc2ccccc21 (relative stereo) [Compound 147] has an inhibition at 0.03 µM of 95.6%. Compound Cc1cc(C)cc(C(=O)N2CC[C@H](N3CCC(Nc4nc5ccccc5n4Cc4cccs4)CC3)C[C@@H]2Cc2ccccc2)c1 (relative stereo) [Compound 7] has an inhibition at 0.03 µM of 54%. With Cc1cc(C)cc(C(=O)N2CC[C@H](N3CCC(Nc4nc5ccccc5n4Cc4cscn4)CC3)C[C@@H]2Cc2ccccc2)c1 (relative stereo) [Compound 9] the inhibition at 0.03 µM was 78.1%. For CCOCCn1c(NC2CCN([C@H]3CCN(C(=O)c4cc(C)cc(C)c4)[C@@H](Cc4ccccc4)C3)CC2)nc2ccccc21 (relative stereo) [Compound 1], the inhibition at 0.03 µM was 15%. With Cc1ccc(Cn2c(NC3CCN([C@@H]4CCN(C(=O)c5cc(C(F)(F)F)cc(C(F)(F)F)c5)[C@H](Cc5ccccc5)C4)CC3)nc3ccccc32)o1 (relative stereo) [Compound 28] the inhibition at 0.03 µM was 100%. Compound O=C(c1cc(C(F)(F)F)cc(C(F)(F)F)c1)N1CC[C@@H](N2CCC(Oc3nc4ccccc4n3Cc3ccc(F)cc3)CC2)C[C@@H]1Cc1ccccc1 (relative stereo) [Compound 25] has an inhibition at 0.03 µM of 100%.

Same assay, conditions: Sus scrofa, 0.5 h; test compound 3 × 10^-9; response to 10^-9 M substance P; 30 min incubation
Work on Cc1nc(C)c(Cn2c(NC3CCN([C@@H]4CCN(C(=O)c5cc(C(F)(F)F)cc(C(F)(F)F)c5)[C@@H](Cc5ccccc5)C4)CC3)nc3cccnc32)o1 (relative stereo) [Compound 18] yielded an inhibition at 0.003 µM of 73.7%. CCOCCn1c(N[C@@H]2CCN(C(=O)c3cc(C(F)(F)F)cc(C(F)(F)F)c3)[C@H](Cc3ccc(C(F)(F)F)cc3)C2)nc2ccccc21 (relative stereo) [Compound 146] gave an inhibition at 0.003 µM of 51.8%. Compound Cc1ncc(Cn2c(N[C@@H]3CCN(C(=O)c4ccco4)[C@@H](Cc4ccccc4)C3)nc3ccccc32)o1 (relative stereo) [Compound 46] has an inhibition at 0.003 µM of 17.6%. In the case of Cc1ccc(Cn2c(C(O)C3CCN(C4CCN(C(=O)c5cc(C(F)(F)F)cc(C(F)(F)F)c5)C(Cc5ccccc5)C4)CC3)nc3ccccc32)o1 (centres unmarked) [Compound 23], the inhibition at 0.003 µM is reported as 94.3%. Compound Cc1ccc(Cn2c(C(O)C3CCN([C@H]4CCN(C(=O)c5cc(C(F)(F)F)cc(C(F)(F)F)c5)[C@@H](Cc5ccccc5)C4)CC3)nc3ccccc32)o1 (some centres unmarked) [Compound 22] has an inhibition at 0.003 µM of 89.4%. Cc1ccc(Cn2c(NC3CCN([C@H]4CCN(C(=O)c5cc(C(F)(F)F)cc(C(F)(F)F)c5)[C@@H](Cc5ccccc5)C4)CC3)nc3cccnc32)o1 (relative stereo) [Compound 19] was tested, and the inhibition at 0.003 µM was 79.5%. With Cc1ccc(Cn2c(NC3CCN([C@@H]4CCN(C(=O)c5cc(C(F)(F)F)cc(C(F)(F)F)c5)[C@@H](Cc5ccccc5)C4)C3)nc3cccnc32)o1 (some centres unmarked) [Compound 31] the inhibition at 0.003 µM was 90.6%. Work on O=C(c1cc(C(F)(F)F)cc(C(F)(F)F)c1)N1CC[C@@H](N2CCC(Cc3nc4ccccc4n3Cc3ccc(F)cc3)CC2)C[C@@H]1Cc1ccccc1 (relative stereo) [Compound 33] yielded an inhibition at 0.003 µM of 56.8%.
